The structures appear in SMILES notation.

For one test, the system named is HBV. Nature of the test: Viral production from HepAD38 cells, viral load by qPCR of HBV core sequence. The class given is cell-based. The conditions noted are these: 5 days, supernatant HBV DNA by qPCR, read-out: Viral Load EC50 Activity range. On the procedure:
Assay Measuring Activity of Test Compounds on Viral Production from HepAD38 Cells
HepAD38 cells grown in a T-150 flask (Corning, cat #: 430825) with Growth Medium (DMEM/F12 (1:1) (Hyclone, cat #: SH30023.02), 1× Pen/Strep (Invitrogen, cat #: 15140-122), 10% FBS (Tissue Culture Biologics, cat #: 101), 250 μg/mL G418 (Alfa Aesar, cat #: J62671), 1 μg/mL Tetracycline (Teknova, cat #: T3320)) were detached with 0.25% trypsin-EDTA to (Invitrogen, cat #: 25200-056). Tetracycline-free treatment medium (15 mL DMEM/F12 (1:1) 1× Pen/step, with 2% FBS, Tet-system approved (Clontech, cat #: 631106) were then added to mix, transferred into a 50 ml conical tube (Falcon, cat #: 21008-918,) and spun at 1300 rpm for 5 min. Pelleted cells were then re-suspended/washed with 50 mL of 1×DPBS (Invitrogen, cat #: 14190-136) 2 times and 50 mL treatment medium twice. HepAD38 cells were then re-suspended with 10 mL of treatment medium, syringed and counted. Wells of 96-well clear bottom TC plate (Corning, cat #: 3904,) were seeded at 50,000 cells/well in 180 μL of treatment medium, and 20 μL of either 10% DMSO (Sigma, cat #: D4540) as controls or a 10× solution of test compounds in 10% DMSO in treatment media was added for a final compound concentration starting at 10 μM, and plates were incubated in 5% CO2 incubator at 37° C. for 5 days.
Subsequently viral load production was assayed by quantitative PCR (qPCR) of the HBV core sequence. PCR reaction mixture containing forward primers HBV-f 5′-CTGTGCCTTGGGTGGCTTT-3′ (IDT DNA), Reverse primers HBV-r 5′-[…]-3′ (IDT DNA), Fluorescent TaqMan™ Probes HBV-probe 5′-FAM/AGCTCCAAA/ZEN/[…]/3IABkFQ-3′ (IDT DNA), 10 μL/well of PerfeCTa® qPCR ToughMix® (Quanta Biosciences, Cat #: 95114-05K), and 6 μL/well of DEPC water (Alfa Aesar, cat #: J62087) was prepared. […] of supernatant was added to 16 μL of the reaction mixture in a qPCR plate (Applied Biosytems, Cat #: 4309849), sealed with a film (Applied Biosystems, Cat #: 4311971), centrifuged for a few seconds, and subsequently run on an Applied Biosystems VIIA7. The PCR mixture was incubated at 45° C. for 5 min, then 95° C. for 10 min, followed by 40 cycles of 10 seconds at 95° C. and 20 seconds at 60° C. Viral load was quantified against known HBV DNA standards by using ViiA™ 7 Software. Viral load in the supernatant from wells with treated cells were compared against viral load in supernatant from DMSO control wells (>3 per plate). Cell viability assay was performed with CellTiter-Glo Luminescent Cell Viability Assay (Promega, cat #: G7573) with modification. Mixed appropriate amount of CellTiter-Glo (CTG) 1×DPBS in a 1:1 ratio, added 100 uL of the mixture to each well followed completely removal of all supernatant in each well without touching cell surface. Incubated the plate at room temperature for 10 min on an orbital shaker, and then read the plate with a plate reader (TECAN M1000 or Envision). EC50 or CC50 values were calculated through curve-fitting of the four-parameter nonlinear-logistic-regression model (GraphPad Prism or Dotmatics). CC50 values were all >10 μM.
On the technique in general: Quantitative PCR measures a nucleic acid by following its amplification.
Usually EC50 stands for the concentration needed to bring the measured effect to its halfway point. Regarding `Cn1nc(C2CC3CN(C(=O)OC(C)(C)C)CC3C2)c(C(=O)Nc2ccc(F)c(Cl)c2)c1N` (centres unmarked) [AIA-005], the EC50 is less than 100 nM.

In the case of `Cn1nc(C2CC3CNCC3C2)c(C(=O)Nc2ccc(F)c(Cl)c2)c1N` (centres unmarked) [AIA-006], the EC50 fell in the range of 500 to 10000 nM.

Consider `CC(=O)N1CC2CC(c3nn(C)c(N)c3C(=O)Nc3ccc(F)c(Cl)c3)CC2C1` (centres unmarked) [AIA-007], for which the EC50 is less than 100 nM.

On to `Cn1nc(C2CC3CC(C(=O)O)CC3C2)c(C(=O)Nc2ccc(F)c(Cl)c2)c1N` (centres unmarked) [AIA-014], for which the concentration for a half-maximal effect (EC50) was less than 100 nM.

With `Cn1nc(C2CC3CC(C(N)=O)CC3C2)c(C(=O)Nc2ccc(F)c(Cl)c2)c1N` (centres unmarked) [AIA-015], the EC50 was less than 100 nM.

`CCOC(=O)C=C1CC2CC(c3nn(C)c(N)c3C(=O)Nc3ccc(F)c(Cl)c3)CC2C1` (centres unmarked) [AIA-017]: the EC50 was less than 100 nM.

As to `CCOC(=O)CC1CC2CC(c3nn(C)c(N)c3C(=O)Nc3ccc(F)c(Cl)c3)CC2C1` (centres unmarked) [AIA-018], the EC50 was less than 100 nM.

For the molecule `Cn1nc(C2CC3CC(CCO)CC3C2)c(C(=O)Nc2ccc(F)c(Cl)c2)c1N` (centres unmarked) [AIA-019], the EC50 is less than 100 nM.

Staying with this test, now noted: Hepatitis B virus, HePAD38, 120 h, 5 days, supernatant HBV DNA by qPCR, read-out: Viral Load EC50 Activity range.
Turning to `COc1ccc([C@H]2CC[C@@H](c3nn(C)c(N)c3C(=O)Nc3ccc(F)c(Cl)c3)C2)cc1` [AIA-003-A, 5-Amino-N-(3-chloro-4-fluorophenyl)-3-((1R,3S)-3-(4-methoxyphenyl)cyclopentyl)-1-methyl-1H-pyrazole-4-carboxamide], the concentration giving a half-maximal response (EC50) was less than 100 nM.

`COc1ccc([C@H]2CC[C@H](c3nn(C)c(N)c3C(=O)Nc3ccc(F)c(Cl)c3)C2)cc1` [AIA-003-B, 5-amino-N-(3-chloro-4-fluorophenyl)-3-((1S,3S)-3-(4-methoxyphenyl)cyclopentyl)-1-methyl-1H-pyrazole-4-carboxamide]: the 50% effective concentration (EC50) was less than 100 nM.

On to `COc1ccc([C@@H]2CC[C@H](c3nn(C)c(N)c3C(=O)Nc3ccc(F)c(Cl)c3)C2)cc1` [AIA-003-C, 5-Amino-N-(3-chloro-4-fluorophenyl)-3-((1S,3R)-3-(4-methoxyphenyl)cyclopentyl)-1-methyl-1H-pyrazole-4-carboxamide], for which the EC50 was 100 to 500 nM.

On to `COc1ccc([C@@H]2CC[C@@H](c3nn(C)c(N)c3C(=O)Nc3ccc(F)c(Cl)c3)C2)cc1` [AIA-003-D, 5-amino-N-(3-chloro-4-fluorophenyl)-3-((1R,3R)-3-(4-methoxyphenyl)cyclopentyl)-1-methyl-1H-pyrazole-4-carboxamide], for which the EC50 was less than 100 nM.

With `Cn1nc(C2CC3CC(C)(O)CC3C2)c(C(=O)Nc2ccc(F)c(Cl)c2)c1N` (centres unmarked) [AIA-011, 5-Amino-N-(3-chloro-4-fluorophenyl)-3-(5-hydroxy-5-methyloctahydropentalen-2-yl)-1-methyl-1H-pyrazole-4-carboxamide], the concentration for a half-maximal effect (EC50) was less than 100 nM.

As to `CCN(CC)C1CC2CC(c3nn(C)c(N)c3C(=O)Nc3ccc(F)c(Cl)c3)CC2C1` (centres unmarked) [AIA-012, 5-Amino-N-(3-chloro-4-fluorophenyl)-3-(5-(diethylamino)octahydropentalen-2-yl)-1-methyl-1H-pyrazole-4-carboxamide], the concentration for a half-maximal effect (EC50) was 100 to 500 nM.

On to `Cn1nc(C2CC3CC(N4CCC4)CC3C2)c(C(=O)Nc2ccc(F)c(Cl)c2)c1N` (centres unmarked) [AIA-013, 5-Amino-3-(5-(azetidin-1-yl)octahydropentalen-2-yl)-N-(3-chloro-4-fluorophenyl)-1-methyl-1H-pyrazole-4-carboxamide], for which the EC50 lay in the range of 100 to 500 nM.

On to `CNC(=O)C1CC2CC(c3nn(C)c(N)c3C(=O)Nc3ccc(F)c(Cl)c3)CC2C1` (centres unmarked) [AIA-016, 5-Amino-N-(3-chloro-4-fluorophenyl)-1-methyl-3-(5-(methylcarbamoyl)octahydropentalen-2-yl)-1H-pyrazole-4-carboxamide], for which the EC50 is less than 100 nM.

For the molecule `CN(C)C(=O)CC1CC2CC(c3nn(C)c(N)c3C(=O)Nc3ccc(F)c(Cl)c3)CC2C1` (centres unmarked) [AIA-020, 5-Amino-N-(3-chloro-4-fluorophenyl)-3-(5-(2-(dimethylamino)-2-oxoethyl)octahydropentalen-2-yl)-1-methyl-1H-pyrazole-4-carboxamide], the concentration giving a half-maximal response (EC50) is less than 100 nM.

The values above are taken from patent publication US11560370B1, “5-membered heteroaryl carboxamide compounds for treatment of HBV” (Assembly Biosciences, Inc., priority 2018, dated 2023).
